Test results published in US10039807B2, “bFGF-polymer conjugates, methods for making the same and applications thereof” (THE REGENTS OF THE UNIVERSITY OF CALIFORNIA, priority 2011, dated 2018).

Key:
[1] = system: Human Dermal Fibroblast (HDF) cells; assay: Stability study of bFGF and bFGF conjugates under treatments, read out as HDF proliferation; format: cell-based; conditions: for percent cell growth after trypsin treatment: 0.1% w/v trypsin for 16 hours at 4° C.; for bioactivity after mildly acidic conditions: pH 4.7 for 16 hours at 4° C.; for percent cell growth after storage: storage at 4° C. for 16 hours
Procedure: (§1) Preparation of untreated and treated samples is detailed in the Methods section. The concentrations of bFGF and bFGF in the conjugates under treatment were 0.05 ng/μL. The concentration of heparin under treatment was 0.075 ng/μl or 0.05 μg/μl, while the concentrations of the unconjugated polymers were 0.075 ng/μl. The final concentrations of bFGF and bFGF conjugates in the medium were 1 ng/ml. Incubation of HDF with each of the samples was carried out for 72 hours. CellTiter® blue assay was performed to quantify percent cell growth. Data was normalized to the blank sample (no bFGF added) in that same treatment group. Each sample was done with six repeats, and the whole experiment was repeated eight times including one blinded study, except (+)bFGF(+)1.5 ng/ml pPEGMA and (+)bFGF-pPEGMA were repeated four times. Error bars are SEM. Statistical analysis was done using two-way ANOVA and Student's T-test. * denotes p<0.05, ** denotes p<0.01 and *** denotes p<0.001 between the sample indicated and the (+) bFGF (−) heparin within that same stress set.
To study the stability of bFGF and bFGF conjugates under various treatments (storage, acidic conditions, protease degradation, and heat), the protein and the conjugates were diluted in medium after these treatments and tested for their bioactivity in promoting HDF proliferation.
The control blank group contained 15 μl of D-PBS. The 15 μl/experimental group was split into 4 vials of 3 μl/vial for four separate treatments. In one set of the 3 μl-vials, 27 μl of D-PBS was added to each vial and the samples were stored at 4° C. for 16 hours. In another set of 3 μl-vials, 27 μl of pH 4.7 PBS was added to each vial and the samples were stored at 4° C. for 16 hours. In the third set of 3 μl-vials, 27 μl of 0.1% Trypsin was added to each vial and the samples were stored at 4° C. for 16 hours. The fourth set of 3 μl-vials were stored at 4° C. for 16 hours before 27 μl of 1% TFA was added and treated for 2 hours at 4° C. The samples under no treatment and under heat treatment were prepared fresh in the same way towards the end of the 16 hour-treatment of other samples. The samples under heat treatment were placed in dry bath at 55° C. for 30 minutes. […] Then, the medium samples were used for cell proliferation assay as described above. After an incubation for 72 hours at 37° C., 5% CO2, CellTiter-Blue® assay was carried out to evaluate cell proliferation. […] Each group was done with six replicates, and the whole experiment was repeated four times, one of which was a blinded study. A two-way ANOVA and student's T-test were done for statistical analysis.
The chosen treatments represent environmental stresses that the growth factor (or any heparin-binding protein) could be exposed to. For example, storage in the unfrozen form and exposure to heat during delivery, transport, or use were represented by the “Storage at 4° C. for 16 hours” treatment and “Heat at 55° C. for 30 minutes” treatment, respectively. Incubation at “pH 4.7 for 16 hours” is relevant because mildly acidic conditions are necessary to inhibit bacterial growth during wound treatment.
Furthermore, the stability of the bFGF-heparin mimicking conjugate was challenged against proteolytic degradation and extreme acidic conditions by incubating with 0.1% w/v trypsin for 16 hours and 1% trifluoroacetic acid (TFA) for 2 hours, respectively. The starting concentrations of bFGF and bFGF in the conjugates were equivalent and the concentrations of the unconjugated polymers and heparin were the same at approximately stoichiometric ratios to bFGF. The positive control group contained a large excess (700 molar) of heparin to bFGF. The negative control was native bFGF alone.

[2] = system: Human Dermal Fibroblast (HDF) cells; format: cell-based; conditions: 1 ng/ml bFGF or conjugate, 72 hours, with 125 nM PD173074
Procedure: FIG. 6 depicts the exemplary results of an inhibition assay. The medium samples were prepared with and without 125 nM of PD173074. 2,000HDF cells/well was incubated with each of the sample for 72 hours at 37° C., 5% CO2. Each sample group was done with six replicates, and the whole experiment was repeated three times.
To confirm that the bFGF-heparin mimicking conjugate promoted cell growth by the same transduction pathway as by native bFGF, a potent inhibitor for FGF receptor 1 (FGFR1) was included in the media. PD173074 (N-[2-[[4-(diethylamino)butyl]amino]-6-(3, 5-dimethoxyphenyl)pyrido[2, 3-d]pyrimidin-7-yl]-N′-(1, 1-dimethylethyl)-urea) competes with adenosine-5′-triphosphate (ATP) for binding to the receptors, a key step for FGFR phosphorylation, and shuts down the signal transduction pathways associated with cell proliferation.
HDF cells were trypsinized and resuspended in UltraCULTURE™ serum-free medium supplemented with 2 mM L-Glutamine and 100 u/ml penicillin and 100 μg/ml streptomycin. […] On the next day, the experimental groups were prepared to contain 1 ng/ml of bFGF, or 1 ng/ml of bFGF with 1 μg/ml of heparin, or 1 ng/ml of bFGF-pSS-co-PEGMA; all with an addition of 125 nM of the inhibitor PD173074. The control groups were the replicates but without the addition of the inhibitor. Then, the medium in the wells was replaced with 100 μl of each sample. […]

[3] = system: Human Dermal Fibroblast (HDF) cells; assay: Bioactivity after 4-week storage at 4° C., HDF proliferation; format: cell-based; conditions: 4 weeks of storage at 4° C., then 1 ng/ml on HDF for 72 hours
Procedure: FIG. 4B depicts exemplary bioactivity study of bFGF-heparin mimicking (bFGF-pSS-co-PEGMA) conjugate in promoting HDF proliferation compared to other control groups before and after the treatments. Preparation of untreated and treated samples is detailed in the Methods section. The concentrations of bFGF and bFGF in the conjugates under treatment were 0.05 ng/μL. The concentration of heparin under treatment was 0.075 ng/μl or 0.05 μg/μl, while the concentrations of the unconjugated polymers were 0.075 ng/μl. The final concentrations of bFGF and bFGF conjugates in the medium were 1 ng/ml. Bioactivity study of bFGF-heparin mimicking polymer, bFGF-pSS-co-PEGMA conjugate, after 4-week storage at 4° C. Data was normalized to the blank sample (contained medium only). Each group was done with six replicates.
Bioactivity study of bFGF-pSS-co-PEGMA conjugate after long-time storage was also tested. After 4 weeks of storage 4° C.
In these experiments, an amount of 30 μl of each experimental group in D-PBS was made up to contain 0.05 ng/μ1 of bFGF or bFGF-pSS-co-PEGMA conjugate. The positive control group was prepared to contain 0.05 ng/μl of bFGF and 0.05 μg/μl of heparin. The samples were then stored at 4° C. for 4 weeks. […]

[4] = system: Human Dermal Fibroblast (HDF) cells; assay: Bioactivity study: HDF proliferation, CellTiter-Blue assay, untreated samples; format: cell-based; conditions: no stress, samples stored at −80° C. before use; 1 ng/ml bFGF or bFGF in conjugate; 72 hours; normalized to blank
Procedure: as §1
HDF cells were trypsinized and resuspended in UltraCULTURE™ serum-free medium supplemented with 2 mM L-Glutamine and 100 u/ml penicillin and 100 μg/ml streptomycin. The cells were plated at a concentration of 2000 cells/well in a 96-well plate and allowed to adhere over 16 hours at 37° C., 5% CO2. […] Then, the medium in the wells was replaced with 100 μl of each sample. After an incubation for 72 hours at 37° C., 5% CO2, CellTiter-Blue® assay was carried out to evaluate cell proliferation. […] Each group was done with six replicates, and the whole experiment was repeated four times, one of which was a blinded study.
HDFs were used as the in vitro model to evaluate the bioactivity of the bFGF-heparin mimicking polymer conjugate before and after exposure to various stresses.

[5] = system: BaF3 cells (FR1C-11); assay: Proliferation study of BaF3 cells expressing FGFR1 and lacking heparan sulfate proteoglycans; format: cell-based; conditions: 42 hours, medium lacking IL-3, normalized to blank; for percent cell growth, bFGF or conjugate alone: 1 ng/ml, without heparin
Procedure: BaF3 cells (FR1C-11), which express FGFR1 but lack heparin sulfate proteoglycans, were seeded at a density of 20,000 cells/well in cultured medium lacking IL-3 in a 96-well-plate. […] The cells were incubated for 42 hours. CellTiter® blue assay was performed to quantify percent cell growth. Data was normalized to blank sample group. Each group was done with six replicates. Error bars are standard deviations.
Heparin (as cell surface receptors called heparan sulfate proteoglycans) is also known to increase the mitogenic activity of bFGF by increasing binding to the bFGF receptors (FGFRs). In addition, heparin promotes bFGFR dimerization by providing the “glue” between two bFGFs and two FGFRs (see crystal structure, FIGS. 12B and 12C). In fact, this heparin assisted, ligand-induced dimerization of bFGFRs is required for activity. […] In some embodiments, the new heparin mimicking polymer can induce the dimerization and uptake the FGFRs.
While bFGF interacts directly with cells by binding to FGFRs, signal transduction cannot occur without the simultaneous interaction with heparan sulfate proteoglycan (HS) cell surface receptors. […] BaF3 cells are engineered to express FGFR1 and lack cell-surface HS; addition of soluble heparin is required to activate the cells with bFGF.

[6] = system: Human Dermal Fibroblast (HDF) cells; conditions: 1 ng/ml to 1 mg/ml for 24 hours in the absence of bFGF
Procedure: 5,000 HDF cells/well was incubated with various concentrations of each polymer for 24 hours at 37° C., 5% CO2. Then, each well was washed twice with D-PBS and subsequently incubated with 1 μM Calcein AM 4 μM Ethidium homodimer-1 in D-PBS for 20 minutes at 37° C., 5% CO2. Percentage of live cells was calculated by dividing the number of live cells by the total number of live and dead cells. Each experimental group was done with four replicates, and the whole experiment was repeated four times, one of which was a blinded study. Error bars are SEMs.
HDF cells were trypsinized and resuspended in fibroblast growth medium lacking bFGF. The cells were plated at a concentration of 5000 cells/well in a 48-well plate and allowed to adhere over 16 hours at 37° C., 5% CO2. Then, the medium in the wells was replaced with 200 μl of the working medium containing various amount of polymer/heparin. After an incubation of 24 hours at 37° C., 5% CO2, cell viability was assessed using LIVE/DEAD® viability/cytotoxicity assay. Briefly, the cells were washed twice with pre-warmed D-PBS, then incubated with 200 μl of 1 μM Calcein AM and 4 μM Ethidium homodimer-1 in D-PBS for 20 minutes at 37° C., 5% CO2. […] The numbers of live and dead cells were counted manually using NIH Image J software, and percent live cells was calculated by dividing the number of live cells by the total number of live and dead cells. […]

[7] = then 1 ng/ml on HDF for 72 hours

Substance | percent cell growth after trypsin treatment [1, 7] | percent cell growth after TFA treatment ([1]; 1% trifluoroacetic acid (TFA) for 2 hours, then 1 ng/ml on HDF for 72 hours) | percent cell growth after heat treatment ([1]; heat at 55° C. for 30 minutes, then 1 ng/ml on HDF for 72 hours) | bioactivity after mildly acidic conditions [1, 7] | percent cell growth after storage [1, 7] | stability to the treatments (overall) ([1]; storage, pH 4.7, trypsin, 1% TFA, heat, read out as HDF proliferation) | percent cell growth in the presence of PD173074 [2] | activity after long-time storage [3] | percent cell growth [4] | percent cell growth, bFGF or conjugate alone [5] | percent cell growth, bFGF or conjugate alone ([5]; listed as bFGF-pSS-co-pPEGMA) | percent cell viability [6] | percent cell growth, additive given with bFGF ([5]; 1 μg/ml of additive with 1 ng/ml of bFGF)
bFGF-pSS-co-PEGMA: bFGF covalently conjugated via a reversible disulfide bond to one heparin mimicking polymer pSS-co-PEGMA (mono-conjugate) | 176±11% | 162±17% | 167±12% | statistically the same as before treatment | 210±10% | stable | 85±11% | completely retained | 213±13% | did not induce cell growth | 147±14% |  | 
bFGF-poly(ethylene glycol) methyl ether methacrylate) [bFGF-pPEGMA, reference compound] | some stability |  |  | some stability | some stability |  |  |  | 190±6% |  |  |  | 
bFGF: Basic fibroblast growth factor, a 16-kDa polypeptide, also called fibroblast growth factor 2 |  |  |  |  |  |  | 88±5% |  | 192±9% | 127±12% |  |  | 
heparin [reference compound] |  |  |  |  |  |  |  |  |  |  |  | the same as no polymer added | 384±35%
